Measurements published in US12168781B2, “Production method for T cells or NK cells, medium for culturing T cells or NK cells, method for culturing T cells or NK cells, method for maintaining undifferentiated state of undifferentiated T cells, and growth-accelerating agent for T cells or NK cells” (KIRIN HOLDINGS KABUSHIKI KAISHA, priority 2018, dated 2024).

Legend:
naive T cells = assay: Proliferation of sorted naive T cells, trypan blue count; assay type: cell-based, human; details: 1 μM, naive T cells, 6, 9, 12 and 14 days, FIG. 18C
Excerpt: NPL 4 reports that hierarchy exists in T cells (FIG. 18A). In this Example, a fraction in which berbamine acts in T cells was verified. As a method therefor, PBMCs (CTL, Inc.) derived from a healthy subject was washed with a staining solution (PBS containing 2% FBS), and then stained with CCR7-APC (BioLegend, 353214), CD45RA-BV510 (BioLegend, 304142), CD45RO-APC-Cy7 (BioLegend, 307228), CD95-PC-Cy7 (BioLegend, 305622), CD8β-PE (Beckman, IM2217U), and CD4-BV421 (BioLegend, 317434).
After washing, the cells were resuspended in the staining solution containing PI, and by using BD AriaII Cell Sorter (BD Bioscience), in the CD8β(+) cells, CCR7(+)CD45RA(+)CD95(−)CD45RO(−) was sorted as naive T cells, CCR7(+)CD45RA(+)CD95(+)CD45RO(+) was sorted as stem cell memory T cells, CCR7(+)CD45RA(−)CD45RO(+) was sorted as central memory T cells, and CCR7(−) CD45RA(−)CD45RO(+) was sorted as effector memory T cells.
The respective cells (about 3,000 cells/well) were seeded, and berbamine (BBM) at 1 μM or MilliQ water that is a solvent for the compound as a control was added thereto, and the cells were stimulated with CD3/CD28 Dynabeads (about 9,000 beads/well). The cells were cultured using the same culture medium as in Example 6.
After 6, 9, 12, and 14 days of culturing, the number of viable cells was counted by a trypan blue method. In a statistical analysis, a Student's t-test was used (*: p<0.05).

T-iPS-T cells [1] = assay: Comparison with PBMC feeder: proliferation of T-iPS-T cells; assay type: cell-based, human; details: 1 μM added to CD3/CD28 Dynabeads vs PBMC feeder, FIG. 10
Procedure: By using T-iPS-T cells, a proliferation promoting effect was compared by culturing the cells using the following three methods: the same stimulation method as in Example 2 using PBMC feeder, the same stimulation method as in Example 4 using CD3/CD28 Dynabeads, and the same stimulation method as in Example 4 in which berbamine (SIGMA, 547190) at 1 μM was added to CD3/CD28 Dynabeads. The PBMC feeder cells were labeled using CellTrace CFSE Cell Proliferation Kit for Flow Cytometry (CFSE, Invitrogen, 100 nM) in order to discriminate them from T-iPS-T cells, and then, a radiation irradiation treatment was performed.
From the above results, it can be said that the present invention can substitute PBMCs which have been conventionally used for the proliferation of T cells.

T-iPS-T cells [2] = assay: Long-term culturing of T-iPS-T cells obtained by differentiation induction using a feeder, trypan blue count; assay type: cell-based, human; details: 1 μM, FIG. 15(B)
Procedure: Further, evaluation of T-iPS-T cells obtained by differentiation induction using a feeder was also performed. The T-iPS-T cells (1,500 cells/well) obtained by differentiation induction in Example 1 were seeded, and stimulated with CD3/CD28 Dynabeads in the same manner as in Example 4, and berbamine (BBM) at 1 μM or MilliQ water that is a solvent for the compound as a control was added thereto, and the cells were cultured in the same culture medium as in Example 6. The cells were collected on day 14, day 28, and day 42, and the number of viable cells was counted by a trypan blue method, and the cells were restimulated and cultured. The cells were collected on day 56, and the number of viable cells was counted.

[3] = system: regulatory T cells (Treg); assay: Proliferation of regulatory T cells (number of FoxP3-positive cells); assay type: cell-based, human; details: 1 μM, 6 days, CD3 T cells of 3 healthy donors, FIG. 17
Procedure: The usefulness of berbamine (BBM) in the proliferation of regulatory T cells (Treg) was verified. As a method therefor, CD3 T cells were purified from PBMCs (CTL, Inc.) derived from 3 healthy donor subjects in the same manner as in additional Example 6 and cultured for 6 days. After culturing for 6 days, the number of viable cells was counted by a trypan blue method and the ratio of CD25(+)FoxP3(+) cells was analyzed by FACS.
In the FACS, the cultured cells were sorted into facs tubes, washed with a staining solution (PBS containing 2% FBS), and then stained with CD3-APC (BioLegend, 300421), CD4-BV510 (BioLegend, 317444), CD8-Pacific Blue (BD 558207), and CD25-FITC (BioLegend, 302604).
After the cells were further washed, intracellular staining was performed using FoxP3/Transcription Factor Staining Buffer Set (eBioscience, 00-5523) and FoxP3-PE (eBioscience, 12-4776-41), and measurement was performed using a BD LSRFortessa cytometer (BD Bioscience).
The value obtained by multiplying the positive rate of FoxP3(+) cells in the CD4(+) cells analyzed by FlowJo 9 by the number of viable cells was defined as the number of FoxP3-positive cells.

CD8 T cells = assay: Engraftment into mice of CD8 T cells cultured with the compound; assay type: in vivo; details: cells cultured 10 days with 1 μM, two weeks after transplantation into NSG mice, FIG. 19(B)
Procedure: The effect of cells cultured with berbamine on engraftment into mice was examined. As a method therefor, CD8 T cells were purified from PBMCs (CTL, Inc.) derived from a healthy subject using CD8 T Cell Isolation Kit, human (Miltenyi, 130-096-495). The purified CD8 T cells (20,000 cells/well) were seeded, and berbamine (BBM) at 1 μM or MilliQ water that is a solvent for the compound as a control was added thereto, and the cells were cultured in the same culture medium by the same stimulation method as in additional Example 6, and the cells cultured for 10 days were used as cells to be transplanted. NSG male mice at 6 to 11 weeks of age (Charles River Japan) were used as experimental animals and transplantation was performed through the tail vein (approximately 4×10^6 cells). Two weeks after the transplantation, the spleen, peripheral blood and bone marrow were collected, and the CD8β and CD45 positive rates were analyzed by FACS. In the FACS, after the spleen and bone marrow were subjected to a homogenization treatment, and the peripheral blood was subjected to a hemolysis treatment, the resulting materials were transferred to a 96-well plate, followed by washing with a staining solution (PBS containing 2% FBS), and then staining with CD8β-PE-cy7 (eBioscience, 25-5273-42) and CD45-APC-Cy7 (BioLegend, 304014). After washing, the cells were resuspended in the staining solution containing PI. An analysis was performed using a BD LSR Fortessa cytometer (BD Bioscience). The positive rate of CD8β(+)CD45(+) cells in the PI-negative cell population analyzed by FlowJo 9 was measured. Note that in a statistical analysis, a Student's t-test was used (*: p<0.05).

COc1cc2c3cc1Oc1c(OC)c(OC)cc4c1[C@@H](Cc1ccc(O)c(c1)Oc1ccc(cc1)C[C@@H]3N(C)CC2)N(C)CC4 [berbamine]
number of viable cells compared with MilliQ water (naive T cells): significant enhancement of cell proliferation
number of undifferentiated cells compared with the presence of feeder cells (T-iPS-T cells [1]): comparable results
number of viable cells compared with the presence of feeder cells (T-iPS-T cells [1]): significant increase in the number of viable cells
period for which the cells could be cultured (T-iPS-T cells [2]; restimulated on day 14, 28, 42, MilliQ water control could not be cultured after day 28): 56 days
proliferation of the cells in long-term culturing (T-iPS-T cells [2]; vs MilliQ water): enhancement of the proliferation of the cells
number of FoxP3-positive cells compared with MilliQ water [3]: increase in the number of FoxP3-positive cells
positive rate of CD8β(+)CD45(+) cells (engraftment) compared with cells cultured with MilliQ water (CD8 T cells; bone marrow): significant engraftment
positive rate of CD8β(+)CD45(+) cells (engraftment) compared with cells cultured with MilliQ water (CD8 T cells; peripheral blood): significant engraftment
positive rate of CD8β(+)CD45(+) cells (engraftment) compared with cells cultured with MilliQ water (CD8 T cells; spleen): significant engraftment
